# Results reported in ChEMBL document CHEMBL1155160, “Novel complex class 1 integron bearing an ISCR1 element in an Escherichia coli isolate carrying the blaCTX-M-14 gene” (2007).
# Test system: Escherichia coli
# Test: Antimicrobial activity against Escherichia coli AJE0508 isolate carrying ISCR1 element related blaCTX-M-14 gene by agar dilution method
# Format: functional
row,SMILES,MIC
1,CC1(C)S[C@@H]2[C@H](NC(=O)[C@H](N)c3ccccc3)C(=O)N2[C@H]1C(=O)O [AMPICILLIN],> 256 µg/mL
2,CC(C)(O/N=C(\C(=O)N[C@@H]1C(=O)N2C(C(=O)[O-])=C(C[n+]3ccccc3)CS[C@H]12)c1csc(N)n1)C(=O)O [CEFTAZIDIME],32 µg/mL
3,C[C@@H](O)[C@H]1C(=O)N2C(C(=O)O)=C(SCCNC=N)C[C@H]12 [IMIPENEM ANHYDROUS],0.1 µg/mL
4,C[C@H]1[C@H](NC(=O)/C(=N\OC(C)(C)C(=O)O)c2csc(N)n2)C(=O)N1S(=O)(=O)O [AZTREONAM],64 µg/mL
5,CO/N=C(\C(=O)N[C@@H]1C(=O)N2C(C(=O)O)=C(COC(C)=O)CS[C@H]12)c1csc(N)n1 [CEFOTAXIME],64 µg/mL
6,CO[C@@]1(NC(=O)Cc2cccs2)C(=O)N2C(C(=O)O)=C(COC(N)=O)CS[C@@H]21 [CEFOXITIN],8 µg/mL
